We go through 22 molecules from ChEMBL document CHEMBL5360532, “Current scenario of quinolone hybrids with potential antibacterial activity against ESKAPE pathogens” (Eur J Med Chem, 2023).

≈ marks a conversion by molar mass, not a printed value.

What all share (format): functional
The subject of experiment [1] is Staphylococcus aureus. The experiment in a line: Antibacterial activity against Staphylococcus aureus ATCC 25923 assessed as bacterial growth inhibition measured after 18 hrs by agar dilution assay. (In general: In agar dilution, organisms are placed on agar that contains the substance at set levels.)
The subject of experiment [2] is Escherichia coli. The experiment in a line: Antibacterial activity against Escherichia coli ATCC 25922 assessed as bacterial growth inhibition measured after 18 hrs by agar dilution assay.
Experiment [3] relates to Escherichia coli. The experiment in a line: Potency index, ratio of ciprofloxacin MIC to test compound MIC for antimicrobial activity against Escherichia coli assessed as bacterial growth inhibition by agar cup diffusion assay.
The test system of experiment [4] is Staphylococcus aureus. The experiment is described as follows: Antibacterial activity against Staphylococcus aureus assessed as bacterial growth inhibition by broth microdilution assay. (In general: Broth dilution looks for growth in wells or tubes with falling amounts of substance.)
For experiment [5], the system named is Escherichia coli. The experiment is described as follows: Antibacterial activity against Escherichia coli assessed as bacterial growth inhibition by broth microdilution assay.
Experiment [6] relates to Pseudomonas aeruginosa. The experiment in a line: Antibacterial activity against Pseudomonas aeruginosa assessed as bacterial growth inhibition by broth microdilution assay.
In experiment [7] the test system is Escherichia coli. The experiment is described as follows: Antibacterial activity against Escherichia coli assessed as bacterial growth inhibition by two fold microdilution assay.
The test system of another experiment is Klebsiella pneumoniae. The experiment is described as follows: Antibacterial activity against Klebsiella pneumoniae assessed as bacterial growth inhibition by two fold microdilution assay.
Experiment [8] deals with Staphylococcus aureus. The experiment is described as follows: Antibacterial activity against Staphylococcus aureus assessed as bacterial growth inhibition by two fold microdilution assay.
Experiment [9] concerns Escherichia coli. The experiment in a line: […] activity against Escherichia coli assessed as bacterial growth inhibition by broth dilution assay.
Experiment [10] relates to Staphylococcus aureus. The experiment is described as follows: Antibacterial activity against clinical isolate methicillin resistant Staphylococcus aureus assessed as bacterial growth inhibition by microdilution assay.
Experiment [11] deals with Staphylococcus aureus. The experiment is described as follows: Antibacterial activity against Staphylococcus aureus ATCC 25923 assessed as bacterial growth inhibition by microdilution assay.
Experiment [12] deals with Escherichia coli. The experiment in a line: Antibacterial activity against Escherichia coli ATCC 10536 assessed as bacterial growth inhibition measured after 24 to 48 hrs by agar dilution assay. To be noted: time 24-48 hrs.
Experiment [13] has as its system Pseudomonas aeruginosa. The experiment in a line: Antibacterial activity against Pseudomonas aeruginosa ATCC 11632 assessed as bacterial growth inhibition measured after 24 to 48 hrs by agar dilution assay. To be noted: time 24-48 hrs.
Another experiment concerns Enterococcus faecalis. The experiment in a line: Antibacterial activity against Enterococcus faecalis assessed as bacterial growth inhibition by broth microdilution assay.
Experiment [14] relates to Escherichia coli. The experiment in a line: Antibacterial activity against fluoroquinolone Escherichia coli assessed as bacterial growth inhibition by broth microdilution assay.
The subject of experiment [15] is Escherichia coli. The experiment is described as follows: Antibacterial activity against Escherichia coli ATCC 8739 assessed as bacterial growth inhibition by two fold microdilution assay.
For experiment [16], the system named is Staphylococcus aureus. The experiment is described as follows: Antibacterial activity against Staphylococcus aureus ATCC 6538P assessed as bacterial growth inhibition by two fold microdilution assay.
Experiment [17] deals with Staphylococcus aureus. The experiment is described as follows: Antibacterial activity against methicillin resistant Staphylococcus aureus ATCC 33591 assessed as bacterial growth inhibition measured after 16 to 18 hrs by serial dilution method. Conditions: time 16-18 hrs.

By MIC is commonly meant the lowest concentration found to suppress growth. As for `CCn1cc(C(=O)O)c(=O)c2cc(F)c(N3CCN(Cc4cn(-c5ccc([N+](=O)[O-])cc5)nn4)CC3)cc21`, the MIC in the experiment with Staphylococcus aureus [1] and with Escherichia coli [2] was 0.12 µg/mL (≈ 0.23 µM) each time.

On to `CCn1nnnc1SCCC(=O)N1CCN(c2cc3c(cc2F)c(=O)c(C(=O)O)cn3C2CC2)CC1`, for which the Ratio in the experiment with Escherichia coli [3] is given as 2.

As to `CCn1cc(C(=O)O)c(=O)c2cc(F)c(N3CCN(Cn4nc(-c5cccnc5)oc4=S)CC3)cc21`, the MIC with Staphylococcus aureus [4], in the experiment on Escherichia coli [5] and in the experiment on Pseudomonas aeruginosa [6] was at most 0.125 µg/mL in each case.

For the molecule `Cc1nn(Cc2nn(CN3CCN(c4cc5c(cc4F)c(=O)c(C(=O)O)cn5C4CC4)CC3)c(=S)n2Cc2ccccc2)c(=O)n1/N=C/c1ccccc1O`, the MIC with Escherichia coli [7] was under 0.24 µg/mL; in the experiment on Klebsiella pneumoniae, under 0.24 µg/mL; in the experiment on Staphylococcus aureus [8] it was under 28 µg/mL.

As for `O=C(O)c1cn(C2CC2)c2cc(N3CCN(C(=O)CCSc4nnnn4-c4ccc(F)c(F)c4F)CC3)c(F)cc2c1=O`, in the experiment on Escherichia coli [3], the Ratio was determined as 2.

`CCCc1nn(CN2CCN(c3ncc4c(=O)c(C(=O)O)cn(CC)c4n3)CC2)c(=S)n1-c1cccc(OC)c1`: the minimum inhibitory concentration (MIC) with Escherichia coli [9] is 0.98 µg/mL (≈ 1.74 µM).

As to `COc1ccc(S(=O)(=O)N2CCC[C@@H]3CN(c4c(F)cc5c(=O)c(C(=O)O)cn(C6CC6)c5c4OC)C[C@@H]32)cc1`, the MIC with Staphylococcus aureus [10] and with Staphylococcus aureus [11] was under 2.64 µg/mL in each case.

On to `CCn1cc(C(=O)O)c(=O)c2cnc(N3CCN(Cc4cn(-c5ccccc5)nn4)CC3)nc21`, for which the MIC with Staphylococcus aureus [1] and in the experiment on Escherichia coli [2] was 0.12 µg/mL (≈ 0.261 µM) each time.

As to `O=C(O)c1cn(C2CC2)c2cc(N3CCN(C(=O)CCSc4nnnn4-c4ccc(C(F)(F)F)cc4)CC3)c(F)cc2c1=O`, the Ratio in the experiment with Escherichia coli [3] turned out to be 2.

With `COc1c(N2CCNC(C)C2)c(F)cc2c(=O)c(C(=O)O)cn(C3CC3)c12` (stereo unspecified) [GATIFLOXACIN], the minimum inhibitory concentration (MIC) was determined as 0.25 µg/mL (≈ 0.666 µM) in the experiment with Escherichia coli [12]; 0.25 µg/mL (≈ 0.666 µM) with Pseudomonas aeruginosa [13]; 0.72 µg/mL (≈ 1.92 µM) with Staphylococcus aureus [4]; 0.66 µg/mL (≈ 1.76 µM) in the experiment on Escherichia coli [5]; 0.47 µg/mL (≈ 1.25 µM) in the experiment on Enterococcus faecalis; 0.66 µg/mL (≈ 1.76 µM) in the experiment on Escherichia coli [14].

As for `CCn1cc(C(=O)O)c(=O)c2cc(F)c(N3CCN(Cn4nc(-c5ccco5)oc4=S)CC3)cc21`, the minimal inhibitory concentration (MIC) with Staphylococcus aureus [4], in the experiment on Escherichia coli [5] and with Pseudomonas aeruginosa [6] was at most 0.125 µg/mL in each case.

Consider `CCn1cc(C(=O)O)c(=O)c2cnc(N3CCN(Cn4nc(-c5ccc(OC)cc5)n(-c5ccc(C(C)(C)C)cc5)c4=S)CC3)nc21`, for which, in the experiment on Escherichia coli [9], the MIC was found to be 0.98 µg/mL (≈ 1.5 µM).

`O=C(CSC(=S)N1CCN(c2cc3c(cc2F)c(=O)c(C(=O)O)cn3C2CC2)CC1)Nc1cccc(Cl)c1`: the MIC in the experiment with Staphylococcus aureus [4] and in the experiment on Pseudomonas aeruginosa [6] was 0.024 µg/mL (≈ 0.0417 µM) in each case.

For `Cn1c(=O)c(C(=O)CNc2ccc(-c3nc4ccc(Cl)c(Cl)c4s3)cc2)c(O)c2ccccc21`, the MIC in the experiment with Escherichia coli [12] and in the experiment with Pseudomonas aeruginosa [13] was 0.5 µg/mL (≈ 0.98 µM) each time.

For `CCCCc1nn(CN2CCN(c3ncc4c(=O)c(C(=O)O)cn(CC)c4n3)CC2)c(=S)n1-c1cccc(OC)c1`, the MIC in the experiment on Escherichia coli [9] worked out at 0.98 µg/mL (≈ 1.69 µM).

`CCn1cc(C(=O)O)c(=O)c2cc(F)c(N3CCN(Cc4cn(-c5ccccc5)nn4)CC3)cc21`: the MIC in the experiment on Staphylococcus aureus [1] and in the experiment with Escherichia coli [2] was 0.12 µg/mL (≈ 0.252 µM) in each case.

In the case of `CCn1cc(C(=O)O)c(=O)c2cnc(N3CCN(Cc4cn(-c5ccc([N+](=O)[O-])cc5)nn4)CC3)nc21`, the MIC in the experiment with Staphylococcus aureus [1] and in the experiment with Escherichia coli [2] was 0.12 µg/mL (≈ 0.237 µM) in each case.

As for `CCn1cc(C(=O)O)c(=O)c2cc(F)c(N3CCN(Cn4nc(Cn5nc(C)n(/N=C/c6ccccc6O)c5=O)n(Cc5ccccc5)c4=S)CC3)cc21`, the minimum inhibitory concentration (MIC) in the experiment with Escherichia coli [7] was under 0.24 µg/mL; in the experiment with Klebsiella pneumoniae, under 0.24 µg/mL; with Staphylococcus aureus [8], under 28 µg/mL.

As for `CCn1cc(C(=O)O)c(=O)c2cc(F)c(N3CCN(Cn4nc(-c5ccncc5)oc4=S)CC3)cc21`, the minimal inhibitory concentration (MIC) in the experiment with Staphylococcus aureus [4], in the experiment with Escherichia coli [5] and in the experiment on Pseudomonas aeruginosa [6] was at most 0.125 µg/mL throughout.

Turning to `CCn1cc(C(=O)O)c(=O)c2cc(F)c(N3CCN(Cn4nc(-c5ccncc5)n(-c5ccc(OC)cc5)c4=S)CC3)cc21`, the MIC with Klebsiella pneumoniae, in the experiment on Escherichia coli [15] and with Staphylococcus aureus [16] was at most 0.125 µg/mL each time.

Take `Cc1ccc(-c2ccnc(Nc3ccc4c(=O)c(C(=O)O)cn(C5CC5)c4c3)n2)cc1C`: the minimum inhibitory concentration (MIC) in the experiment with Staphylococcus aureus [17] was determined as 0.38 µg/mL (≈ 0.891 µM).

Regarding `CCc1nn(CN2CCN(c3ncc4c(=O)c(C(=O)O)cn(CC)c4n3)CC2)c(=S)n1-c1cccc(OC)c1`, the minimal inhibitory concentration (MIC) with Escherichia coli [9] amounted to 0.98 µg/mL (≈ 1.78 µM).
